Test results from ChEMBL document CHEMBL5465560, “Selectivity Literature for EUbOPEN Chemogenomic Library” (2024).

How the values were obtained:
[1] = target: Mitogen-activated protein kinase kinase kinase 4 (Homo sapiens) (UniProt Q9Y6R4); test: Selectivity interaction (KinomeScan (DiscoverX)) EUB0000607a MAP3K4; settings: at 10 µM
[2] = target: T1, Mitogen-activated protein kinase 13 (Homo sapiens) (UniProt O15264); test: Selectivity interaction (ProQinase) EUB0000171b MAPK13
T1 sequence (whole entry): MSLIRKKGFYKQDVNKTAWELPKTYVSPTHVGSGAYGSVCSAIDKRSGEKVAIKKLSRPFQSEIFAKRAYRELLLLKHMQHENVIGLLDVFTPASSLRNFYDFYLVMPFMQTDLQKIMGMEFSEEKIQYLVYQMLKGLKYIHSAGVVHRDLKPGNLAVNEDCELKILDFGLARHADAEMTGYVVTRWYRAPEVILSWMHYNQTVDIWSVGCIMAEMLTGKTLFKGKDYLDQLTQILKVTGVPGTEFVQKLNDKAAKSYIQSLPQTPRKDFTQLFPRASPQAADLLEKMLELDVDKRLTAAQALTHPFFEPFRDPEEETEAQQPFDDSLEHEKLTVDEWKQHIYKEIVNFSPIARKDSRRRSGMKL

[3] = target: Muscarinic acetylcholine receptor M3 (Homo sapiens, UniProt P20309); test: Selectivity interaction (Panel of non-epigenetic targets (kinases, GPCRs, ion channels, and transporters, Eurofins) ) EUB0000271b CHRM3; settings: at 1 µM
Muscarinic acetylcholine receptor M3, sequence (P20309 whole entry, looked up): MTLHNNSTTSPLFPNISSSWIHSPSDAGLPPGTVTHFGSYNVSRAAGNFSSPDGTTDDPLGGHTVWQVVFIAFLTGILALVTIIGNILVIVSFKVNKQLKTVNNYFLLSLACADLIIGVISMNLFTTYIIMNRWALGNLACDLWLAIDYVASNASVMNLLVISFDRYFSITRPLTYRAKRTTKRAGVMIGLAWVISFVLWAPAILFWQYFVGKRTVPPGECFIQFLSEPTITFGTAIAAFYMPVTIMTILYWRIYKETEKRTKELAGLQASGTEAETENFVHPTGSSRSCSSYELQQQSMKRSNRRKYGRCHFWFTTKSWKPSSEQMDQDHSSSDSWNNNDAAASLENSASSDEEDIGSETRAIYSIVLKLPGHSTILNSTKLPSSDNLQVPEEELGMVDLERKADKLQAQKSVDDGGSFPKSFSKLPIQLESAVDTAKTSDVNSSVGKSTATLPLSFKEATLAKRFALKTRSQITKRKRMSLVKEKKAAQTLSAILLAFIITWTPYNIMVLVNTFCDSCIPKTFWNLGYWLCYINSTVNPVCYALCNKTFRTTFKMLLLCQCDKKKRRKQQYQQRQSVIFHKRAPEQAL

[4] = target: T2, Tyrosine-protein kinase receptor TYRO3 (Homo sapiens) (UniProt Q06418); test: Selectivity interaction (KinomeScan (DiscoverX)) EUB0001079a TYRO3; settings: at 1 µM
T2 sequence (whole entry): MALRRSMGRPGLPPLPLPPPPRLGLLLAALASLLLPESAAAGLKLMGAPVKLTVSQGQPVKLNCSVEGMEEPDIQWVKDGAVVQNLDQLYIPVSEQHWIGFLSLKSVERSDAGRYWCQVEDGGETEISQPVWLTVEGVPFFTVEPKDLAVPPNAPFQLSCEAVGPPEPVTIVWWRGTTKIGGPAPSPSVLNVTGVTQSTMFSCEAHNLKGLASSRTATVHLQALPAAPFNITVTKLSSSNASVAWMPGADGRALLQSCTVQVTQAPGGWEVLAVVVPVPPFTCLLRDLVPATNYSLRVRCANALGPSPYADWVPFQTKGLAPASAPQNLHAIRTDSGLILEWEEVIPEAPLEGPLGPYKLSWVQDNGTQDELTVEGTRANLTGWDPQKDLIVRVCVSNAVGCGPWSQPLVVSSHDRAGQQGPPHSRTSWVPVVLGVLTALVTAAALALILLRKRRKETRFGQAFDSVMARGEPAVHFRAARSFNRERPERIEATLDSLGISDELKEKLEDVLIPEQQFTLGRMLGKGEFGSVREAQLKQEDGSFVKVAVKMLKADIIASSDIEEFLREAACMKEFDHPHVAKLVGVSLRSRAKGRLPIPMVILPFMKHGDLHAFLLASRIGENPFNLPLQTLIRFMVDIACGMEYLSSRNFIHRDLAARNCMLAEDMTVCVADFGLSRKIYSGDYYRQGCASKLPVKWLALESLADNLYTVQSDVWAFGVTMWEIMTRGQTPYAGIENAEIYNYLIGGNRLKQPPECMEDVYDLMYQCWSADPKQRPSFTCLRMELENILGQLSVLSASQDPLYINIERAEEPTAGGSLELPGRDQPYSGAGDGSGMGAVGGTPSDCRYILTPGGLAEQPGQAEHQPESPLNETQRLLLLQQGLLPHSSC

[5] = target: Cyclin-dependent kinase-like 3 (Homo sapiens) (UniProt Q8IVW4); test: Selectivity interaction (KinomeScan (DiscoverX)) EUB0001079a CDKL3; settings: at 1 µM
Cyclin-dependent kinase-like 3 (Homo sapiens), sequence (Q8IVW4 whole entry, looked up): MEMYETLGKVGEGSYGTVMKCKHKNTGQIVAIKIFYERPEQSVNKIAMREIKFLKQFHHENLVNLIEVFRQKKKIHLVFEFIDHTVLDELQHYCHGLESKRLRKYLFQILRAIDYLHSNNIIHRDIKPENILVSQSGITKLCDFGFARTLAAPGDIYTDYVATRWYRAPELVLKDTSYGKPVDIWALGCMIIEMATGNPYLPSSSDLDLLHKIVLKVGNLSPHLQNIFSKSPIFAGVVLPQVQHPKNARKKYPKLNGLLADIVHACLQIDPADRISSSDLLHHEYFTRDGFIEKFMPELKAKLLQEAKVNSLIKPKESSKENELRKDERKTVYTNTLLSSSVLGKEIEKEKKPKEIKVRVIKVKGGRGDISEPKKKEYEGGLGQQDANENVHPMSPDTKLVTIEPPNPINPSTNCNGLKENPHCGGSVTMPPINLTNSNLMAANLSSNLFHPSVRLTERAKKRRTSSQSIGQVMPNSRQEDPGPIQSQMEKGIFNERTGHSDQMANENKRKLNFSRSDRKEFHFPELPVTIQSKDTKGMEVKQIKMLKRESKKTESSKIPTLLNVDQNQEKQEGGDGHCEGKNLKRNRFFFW

[6] = target: Serine/threonine-protein kinase pim-3 (Homo sapiens) (UniProt Q86V86); test: Selectivity interaction (KinomeScan (DiscoverX)) EUB0000229b PIM3; settings: at 10 µM
[7] = test system: Tyrosine-protein kinase ABL1 (Homo sapiens), P00519 [F317L]; test: (§1) Selectivity interaction (KinomeScan (DiscoverX)) EUB0000618a ABL1; settings: at 10 µM
[8] = test system: Tyrosine-protein kinase ABL1 (Homo sapiens), P00519 [M351T]; test: as §1; settings: at 10 µM
[9] = test system: Tyrosine-protein kinase ABL1 (Homo sapiens), P00519 [H396P]; test: as §1; settings: at 10 µM
[10] = test system: Tyrosine-protein kinase ABL1 (Homo sapiens), P00519 [Q252H]; test: as §1; settings: at 10 µM
[11] = test system: Tyrosine-protein kinase ABL1 (Homo sapiens), P00519 [E255K]; test: as §1; settings: at 10 µM
[12] = target: Tyrosine-protein kinase ABL1 (Homo sapiens, UniProt P00519); test: as §1; settings: at 10 µM
[13] = test system: Tyrosine-protein kinase ABL1 (Homo sapiens), P00519 [T315I]; test: as §1; settings: at 10 µM
[14] = test system: Tyrosine-protein kinase ABL1 (Homo sapiens), P00519 [Y253F]; test: as §1; settings: at 10 µM
[15] = test system: Tyrosine-protein kinase ABL1 (Homo sapiens), P00519 [F317I]; test: as §1; settings: at 10 µM
[16] = target: T3, Inhibitor of nuclear factor kappa-B kinase subunit alpha (Homo sapiens) (UniProt O15111); test: Selectivity interaction (ActivX KiNativ screen (ex vivo kinase selectivity in human PBMCs)) EUB0001619a CHUK; assay type: cell-based; settings: PBMC, at 1 µM
T3 sequence (whole entry): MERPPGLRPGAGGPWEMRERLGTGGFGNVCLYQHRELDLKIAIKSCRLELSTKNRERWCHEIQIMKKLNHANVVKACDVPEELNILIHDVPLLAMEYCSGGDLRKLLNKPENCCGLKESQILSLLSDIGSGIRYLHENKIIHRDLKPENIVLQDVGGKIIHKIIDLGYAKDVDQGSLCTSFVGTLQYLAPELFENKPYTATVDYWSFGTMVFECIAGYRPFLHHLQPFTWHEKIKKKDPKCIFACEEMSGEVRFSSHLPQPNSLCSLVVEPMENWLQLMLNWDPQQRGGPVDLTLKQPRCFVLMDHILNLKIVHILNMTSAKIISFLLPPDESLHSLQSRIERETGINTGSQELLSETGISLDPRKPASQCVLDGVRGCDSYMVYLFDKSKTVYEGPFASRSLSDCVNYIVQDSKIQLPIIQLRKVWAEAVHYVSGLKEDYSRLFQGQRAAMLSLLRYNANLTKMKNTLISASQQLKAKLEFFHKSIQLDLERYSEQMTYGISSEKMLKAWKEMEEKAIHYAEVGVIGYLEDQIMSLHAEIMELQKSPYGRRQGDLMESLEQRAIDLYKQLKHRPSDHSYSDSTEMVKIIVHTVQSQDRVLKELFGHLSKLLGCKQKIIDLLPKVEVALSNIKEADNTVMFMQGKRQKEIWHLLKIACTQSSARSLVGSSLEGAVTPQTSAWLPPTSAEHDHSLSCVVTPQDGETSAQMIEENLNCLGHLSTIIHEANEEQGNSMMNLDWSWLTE

Mitogen-activated protein kinase kinase kinase 4 (Homo sapiens), sequence (Q9Y6R4 whole entry): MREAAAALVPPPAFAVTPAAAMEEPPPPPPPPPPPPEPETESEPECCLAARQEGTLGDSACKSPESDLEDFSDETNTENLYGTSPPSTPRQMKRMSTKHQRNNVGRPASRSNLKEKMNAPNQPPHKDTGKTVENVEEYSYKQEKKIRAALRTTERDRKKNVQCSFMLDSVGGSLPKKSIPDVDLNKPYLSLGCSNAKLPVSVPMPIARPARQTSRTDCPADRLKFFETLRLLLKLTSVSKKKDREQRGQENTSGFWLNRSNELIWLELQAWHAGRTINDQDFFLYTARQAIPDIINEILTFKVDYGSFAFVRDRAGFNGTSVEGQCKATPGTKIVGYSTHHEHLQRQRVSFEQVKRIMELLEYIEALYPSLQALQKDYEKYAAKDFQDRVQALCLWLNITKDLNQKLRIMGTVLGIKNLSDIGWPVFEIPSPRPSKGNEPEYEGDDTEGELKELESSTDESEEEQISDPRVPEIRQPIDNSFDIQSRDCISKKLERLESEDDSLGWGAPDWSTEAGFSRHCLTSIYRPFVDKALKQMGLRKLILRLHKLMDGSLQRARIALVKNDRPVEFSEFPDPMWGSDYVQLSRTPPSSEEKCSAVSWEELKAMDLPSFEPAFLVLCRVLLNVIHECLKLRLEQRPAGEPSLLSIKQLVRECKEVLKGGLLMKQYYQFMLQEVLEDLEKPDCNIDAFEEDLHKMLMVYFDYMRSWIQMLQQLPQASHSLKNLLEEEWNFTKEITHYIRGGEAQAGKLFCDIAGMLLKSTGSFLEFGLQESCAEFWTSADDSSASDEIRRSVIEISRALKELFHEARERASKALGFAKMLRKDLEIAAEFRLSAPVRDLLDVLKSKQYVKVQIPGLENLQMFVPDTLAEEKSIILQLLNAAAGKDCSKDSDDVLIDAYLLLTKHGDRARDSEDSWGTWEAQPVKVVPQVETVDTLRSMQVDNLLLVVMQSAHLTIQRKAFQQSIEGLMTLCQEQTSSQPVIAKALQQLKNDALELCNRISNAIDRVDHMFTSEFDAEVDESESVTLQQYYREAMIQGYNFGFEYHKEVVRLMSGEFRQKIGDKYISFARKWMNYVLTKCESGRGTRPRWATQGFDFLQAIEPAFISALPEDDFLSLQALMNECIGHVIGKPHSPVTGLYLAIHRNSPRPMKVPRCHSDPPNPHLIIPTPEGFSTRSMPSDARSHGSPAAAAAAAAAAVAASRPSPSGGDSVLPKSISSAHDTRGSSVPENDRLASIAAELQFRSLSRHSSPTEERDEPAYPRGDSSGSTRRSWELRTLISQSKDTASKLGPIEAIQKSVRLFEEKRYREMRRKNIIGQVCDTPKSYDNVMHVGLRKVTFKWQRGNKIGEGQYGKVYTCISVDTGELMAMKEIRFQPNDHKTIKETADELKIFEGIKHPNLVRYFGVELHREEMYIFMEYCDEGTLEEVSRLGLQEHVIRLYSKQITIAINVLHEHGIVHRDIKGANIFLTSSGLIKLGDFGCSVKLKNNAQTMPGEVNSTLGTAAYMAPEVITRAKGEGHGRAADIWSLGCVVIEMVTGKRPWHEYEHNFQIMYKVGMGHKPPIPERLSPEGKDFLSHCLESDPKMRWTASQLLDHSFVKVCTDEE

CNC(=O)Nc1ccc(-c2nc(N3CC4CCC(C3)O4)c3cnn(C4CCC5(CC4)OCCO5)c3n2)cc1 gave a % of control [1] of 86%.

In the case of C=CC(=O)Nc1cccc(C(=O)Nc2ccc(Nc3cc(-c4[nH]c(SC)nc4C)ccn3)cc2)c1, the % of control ([2]; at 1 µM) is reported as 91% and the % of control ([2]; at 5 µM) is reported as 80%.

For Cc1cc(C)cc([C@@H]2c3cc(C)ccc3NC(=O)CN2C(=O)c2ccc(Br)s2)c1, the % of inhibition [3] was 12%.

In the case of Nc1cnc(N2CCc3cc(S(=O)(=O)Nc4c(F)cc(Cl)cc4F)cc(N4CCCC4=O)c32)nc1 [TP-020n], the % of control [4] is reported as 100% and the % of control [5] is reported as 100%.

COc1cc(N(C)c2ccnc3ccc(C(F)(F)F)cc23)cc(OC)c1OC showed a % binding [6] of 78%.

O[C@H]1CC[C@H](Nc2ncc3nc(Nc4c(F)cc(F)cc4F)n([C@H]4CCOC4)c3n2)CC1 showed a % of control [7] of 55%, a % of control [8] of 38% and a % of control [9] of 13%. The % of control [10] was 47%, the % of control [11] was 31% and the % of control [12] was 39%. The % of control [13] was 100%, the % of control [14] was 29% and the % of control [15] was 51%.

In the case of N#Cc1cccc(-c2c[nH]c3ncnc(N4CCOCC4)c23)c1, the % of inhibition [16] is reported as -7%.
